{"source": "patent US20220273799A1", "about": "“DRUG DELIVERY COMPOSITION, METHOD FORMING THE SAME AND METHOD FOR TREATING INNER EAR DISORDERS” (National Taiwan University of Science and Technology, priority 2021, published 2022)", "assay": "DEX concentration in cochlear perilymph after intratympanic injection", "assay_type": "in vivo, guinea pig", "protocol": "(1) Preparation of guinea pig models: The guinea pig model used in this example is the pigmented guinea pig model. The surgical anesthesia is given by intramuscular injection of ketamine HCl (40 mg per kg guinea pig body weight). The remaining injections are muscle relaxant Rompun® (Xylazine)(10 mg/kg guinea pig body weight), prophylactic antibiotic chloramphenicol sodium succinate (30 mg/kg guinea pig body weight), and local anesthetic Lidocaine HCl (1%, 0.5 mL).\n(2) Preparation for the Guinea pig surgery and the experiment: The surgery is carried out by intratympanic injection. The guinea pig is anesthetized and operated under a dissecting surgical microscope after confirmation. A 22G needle is used to puncture the eardrum, and 200 μL of the temperature-sensitive microbubbles drug (DEX) hydrogel of the present disclosure is applied into the middle ear cavity. The experiments are performed in the ultrasound microbubble treatment group (USM), round window soaking group (RWS), and the group treated with DEX only without MBs (DEX only without MBs). The groups are as follows: USM group is injected with the temperature-sensitive microbubbles drug hydrogel at 3W energy for 1 minute. […] The concentrations of DEX are measured in the cochlear perilymph of guinea pigs on day 1 and day 7 after injection."}
{"smiles": "C[C@@H]1C[C@H]2[C@@H]3CCC4=CC(=O)C=C[C@]4(C)[C@@]3(F)[C@@H](O)C[C@]2(C)[C@@]1(O)C(=O)CO", "note": "[DEX only without MBs, dexamethasone]", "values": [{"measurement": "DEX concentration in cochlear perilymph", "setting": "day 1 after injection, DEX only without MBs group", "value": "about 17.38±2.51 μg/mL"}, {"measurement": "DEX concentration in cochlear perilymph", "setting": "day 7 after injection, DEX only group", "value": "< 3", "unit": "ng/mL"}]}
